{"source": "paper PMC10100225", "about": "“In Vivo Biocatalytic Cascades Featuring an Artificial‐Enzyme‐Catalysed New‐to‐Nature Reaction” (Angewandte Chemie (International Ed. in English), 2022)", "type_in_all_cases": "cell-based", "key": {"[1]": {"molecular_target": "carboxylic acid reductase (CAR) (Nocardia iowensis, UniProt Q6RKB1)", "sequence (Q6RKB1 2-1174)": "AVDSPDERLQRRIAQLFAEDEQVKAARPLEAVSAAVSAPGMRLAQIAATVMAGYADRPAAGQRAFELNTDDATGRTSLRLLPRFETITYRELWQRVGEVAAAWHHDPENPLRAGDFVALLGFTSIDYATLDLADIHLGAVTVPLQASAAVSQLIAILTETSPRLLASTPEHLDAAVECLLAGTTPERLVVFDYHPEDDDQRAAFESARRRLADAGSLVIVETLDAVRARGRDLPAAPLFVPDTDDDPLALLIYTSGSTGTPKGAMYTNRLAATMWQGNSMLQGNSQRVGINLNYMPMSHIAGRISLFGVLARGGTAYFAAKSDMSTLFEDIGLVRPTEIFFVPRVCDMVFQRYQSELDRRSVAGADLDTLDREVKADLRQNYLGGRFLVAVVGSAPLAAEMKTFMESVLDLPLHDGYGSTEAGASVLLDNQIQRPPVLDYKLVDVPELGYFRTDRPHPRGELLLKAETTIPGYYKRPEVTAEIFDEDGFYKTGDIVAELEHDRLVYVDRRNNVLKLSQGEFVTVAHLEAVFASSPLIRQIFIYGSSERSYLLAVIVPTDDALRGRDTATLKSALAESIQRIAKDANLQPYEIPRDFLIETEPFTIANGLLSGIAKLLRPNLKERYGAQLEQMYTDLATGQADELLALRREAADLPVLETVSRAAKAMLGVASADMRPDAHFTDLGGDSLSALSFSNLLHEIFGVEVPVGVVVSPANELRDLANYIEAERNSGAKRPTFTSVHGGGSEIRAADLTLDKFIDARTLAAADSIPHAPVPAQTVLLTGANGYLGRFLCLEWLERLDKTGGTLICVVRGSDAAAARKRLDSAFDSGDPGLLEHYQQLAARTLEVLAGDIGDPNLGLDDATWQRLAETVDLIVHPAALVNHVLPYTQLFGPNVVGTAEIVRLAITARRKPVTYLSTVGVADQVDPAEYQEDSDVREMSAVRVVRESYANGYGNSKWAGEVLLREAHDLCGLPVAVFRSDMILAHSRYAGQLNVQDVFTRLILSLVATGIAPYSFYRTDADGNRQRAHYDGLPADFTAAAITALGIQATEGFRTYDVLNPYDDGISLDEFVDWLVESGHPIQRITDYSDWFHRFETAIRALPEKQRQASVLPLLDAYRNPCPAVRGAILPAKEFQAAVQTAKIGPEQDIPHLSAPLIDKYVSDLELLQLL", "assay": "whole-cell aldehyde formation", "conditions": "E. coli RARE cells co-expressing SFP; MMV medium, 5 mM, 24 °C"}, "[2]": {"molecular_target": "T1, feruloyl CoA synthase (FCS, Atfcs) (Amycolatopsis thermoflava, UniProt Z9FW54HPU9)", "T1 construct": "pETDuet-1, co-expressed with enoyl-CoA hydratase/aldolase Atech of the same strain in E. coli K-12 MG1655 (RARE)", "assay": "whole-cell aldehyde formation", "conditions": "E. coli RARE cells co-expressing ECH hydratase/aldolase, which completes the conversion to aldehyde; MMV medium, 5 mM, 24 °C"}, "[3]": {"molecular_target": "T2, 5-Hydroxymethylfurfural (HMF) oxidase (HMFO) (Methylovorus sp. MP688, UniProt E4QP00)", "T2 construct": "gene MPQ_0130; flavoprotein, pBAD vector, expressed in E. coli K-12 MG1655 (RARE); no mutations told", "T2 sequence (E4QP00 1-531)": "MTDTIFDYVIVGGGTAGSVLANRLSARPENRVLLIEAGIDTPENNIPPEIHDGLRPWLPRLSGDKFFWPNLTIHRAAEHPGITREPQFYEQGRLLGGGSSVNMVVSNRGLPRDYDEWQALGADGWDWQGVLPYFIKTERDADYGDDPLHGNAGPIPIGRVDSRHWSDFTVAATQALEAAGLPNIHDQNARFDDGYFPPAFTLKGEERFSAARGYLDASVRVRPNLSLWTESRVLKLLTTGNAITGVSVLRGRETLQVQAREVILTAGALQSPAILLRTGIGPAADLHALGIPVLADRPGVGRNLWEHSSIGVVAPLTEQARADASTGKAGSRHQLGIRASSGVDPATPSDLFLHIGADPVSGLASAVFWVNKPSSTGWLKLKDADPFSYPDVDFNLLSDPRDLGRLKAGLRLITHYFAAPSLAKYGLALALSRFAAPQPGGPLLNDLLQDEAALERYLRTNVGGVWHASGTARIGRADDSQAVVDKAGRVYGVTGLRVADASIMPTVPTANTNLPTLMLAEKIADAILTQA", "assay": "whole-cell alcohol oxidation", "conditions": "O2 as oxidant; E. coli RARE cells, 5 mM, 2 h"}}}
{"smiles": "O=C(O)c1ccccc1", "note": "[4 b, benzoic acid]", "values": [{"measurement": "whole-cell aldehyde formation", "setting": "[1]", "result": "reduction of benzoic acid to benzaldehyde catalysed by CAR‐SFP/E. coli RARE"}]}
{"smiles": "O=C(O)/C=C/c1ccc(O)cc1", "note": "[compound 5, p-coumaric acid]", "values": [{"measurement": "whole-cell aldehyde formation", "setting": "[2]", "result": "FCS‐ECH/E. coli RARE, starting from p‐coumaric acid"}]}
{"smiles": "OCc1ccccc1", "note": "[6 b, benzyl alcohol]", "values": [{"measurement": "whole-cell alcohol oxidation", "setting": "[3]", "result": "whole cell HMFO catalysed oxidation of benzyl alcohol and p‐hydroxybenzyl alcohol"}]}
{"smiles": "OCc1ccc(O)cc1", "note": "[6 a, p-hydroxybenzyl alcohol]", "values": [{"measurement": "whole-cell alcohol oxidation", "setting": "[3]", "result": "whole cell HMFO catalysed oxidation of benzyl alcohol and p‐hydroxybenzyl alcohol"}]}
{"smiles": "O=C(O)c1ccc(O)cc1", "note": "[4 a, p-hydroxybenzoic acid]", "values": [{"measurement": "whole-cell aldehyde formation", "setting": "[1]", "result": "CAR‐SFP/E. coli RARE, from p‐hydroxybenzoic acid, produced a good yield of p‐hydroxybenzaldehyde"}]}
